# According to ChEMBL document CHEMBL1136198, “Pyrazolo[4,3-d]pyrimidines as new generation of cyclin-dependent kinase inhibitors” (Bioorg Med Chem Lett, 2003):
# Legend:
# [1] = target: K-562 cell line (Homo sapiens); details: k562
# [2] = target: Cyclin-dependent kinase 1/cyclin B (Homo sapiens, UniProt P06493); experiment: Inhibitory concentration against Cyclin-dependent kinase 1-cyclin B; assay type: protein-complex assay
IC50 (K-562 (Homo sapiens)) [µM],IC50 [1] [uM dm**-3],IC50 [2] [µM],Compound
46,,,COc1ccc(CNc2ncnc3c(C(C)C)n[nH]c23)cc1
,> 167,3.1,CC(C)n1cnc2c(NCc3cccc(O)c3)ncnc21
29,,11,CC(C)c1n[nH]c2c(NCc3ccccc3Br)ncnc12
54,,,CC(C)c1n[nH]c2c(NCc3ccccc3O)ncnc12
61,,1.2,CCCCCNc1ncnc2c(C(C)C)n[nH]c12
54,,5.9,CC(C)n1cnc2c(Nc3cccc(Cl)c3)ncnc21
18.4,,0.9,CC(C)c1n[nH]c2c(Nc3cccc(Cl)c3)ncnc12
,112,,CC(C)c1n[nH]c2c(NCc3ccc(O)cc3)ncnc12
,> 167,2.5,CC(C)c1n[nH]c2c(NCc3ccco3)ncnc12
,> 167,9.1,CC(C)n1cnc2c(NCc3ccco3)ncnc21
,> 167,17,CC(C)=CCNc1ncnc2c1ncn2C(C)C
,> 167,4,CC(C)n1cnc2c(NCc3ccc(O)cc3)ncnc21
49,,23,CC(C)n1cnc2c(NCc3ccccc3Br)ncnc21
,152,,CC(C)=CCNc1ncnc2c(C(C)C)n[nH]c12
26,,1.1,COc1ccc(CNc2ncnc3c(C(C)C)n[nH]c23)cc1O
88,,1.7,CC(C)c1n[nH]c2c(NCc3cccc(O)c3)ncnc12
,104,4.5,COc1ccc(CNc2ncnc3c2ncn3C(C)C)cc1O
66,,1.2,CC(C)c1n[nH]c2c(NCc3ccccc3)ncnc12
,144,6.9,CCCCCNc1ncnc2c1ncn2C(C)C
,125,4.4,CC(C)n1cnc2c(NCc3ccccc3O)ncnc21
,> 167,3.8,COc1ccc(CNc2ncnc3c2ncn3C(C)C)cc1

Compound,IC50 (K-562 (Homo sapiens)) [µM],IC50 [1] [uM dm**-3],IC50 [2] [µM]
CC(C)n1cnc2c(NCc3ccccc3)ncnc21,,113,3.6
